ChEMBL document CHEMBL1201862, “PubChem BioAssay data set” (2004)
Calls of active or inactive are those of the source.

Columns and labels:
[1] = biological target: Muscarinic acetylcholine receptor M3 (Homo sapiens, UniProt P20309); experiment: potentiation of ACh response at M3 – cell-based, CHO-K1 hM3, Fluo-4 calcium, ACh EC20, selectivity assay for M1 PAM project, dose response (AID 2428); type: functional
[2] = biological target: Muscarinic acetylcholine receptor M1 (Rattus norvegicus, UniProt P08482); experiment: concentration-dependent potentiation of ACh at M1 – cell-based, calcium mobilization, CHO-K1, ACh EC20, dose response (AID 2425); type: functional
[3] = biological target: Muscarinic acetylcholine receptor M4 (Rattus norvegicus, UniProt P08485); experiment: potentiation of ACh calcium response at rM4 – cell-based, CHO-K1 rat M4/Gqi5, Fluo-4 calcium, ACh EC20, selectivity assay for M1 muscarinic PAM project, dose response (AID 2438); type: functional
Chain of Muscarinic acetylcholine receptor M4 (P08485 whole entry): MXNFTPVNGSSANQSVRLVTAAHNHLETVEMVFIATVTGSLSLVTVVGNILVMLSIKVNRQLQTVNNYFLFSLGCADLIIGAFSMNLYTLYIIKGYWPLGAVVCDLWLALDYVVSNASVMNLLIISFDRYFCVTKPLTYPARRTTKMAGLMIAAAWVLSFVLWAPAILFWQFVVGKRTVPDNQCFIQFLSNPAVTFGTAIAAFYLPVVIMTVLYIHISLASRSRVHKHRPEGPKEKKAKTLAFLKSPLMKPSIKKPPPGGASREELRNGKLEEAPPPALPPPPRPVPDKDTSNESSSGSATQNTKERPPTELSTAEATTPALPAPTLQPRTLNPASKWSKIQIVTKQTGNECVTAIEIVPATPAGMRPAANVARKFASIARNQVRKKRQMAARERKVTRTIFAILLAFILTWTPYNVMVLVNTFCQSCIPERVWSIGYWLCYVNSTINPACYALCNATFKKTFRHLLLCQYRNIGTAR

Large T antigen = Large T antigen (Simian virus 40, UniProt P03070); type: functional, Betapolyomavirus macacae;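 note: Confirmatory-stage PubChem screen for compounds that inhibit SV40 T antigen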
[4] = biological target: T1, Mannose-6-phosphate isomerase (Homo sapiens, UniProt P34949); experiment: MPI inhibition at elevated mannose 6-phosphate – biochemical, fluorescence intensity, high mannose 6-phosphate, primary screen (AID 1220)
T1 sequence (P34949 whole entry): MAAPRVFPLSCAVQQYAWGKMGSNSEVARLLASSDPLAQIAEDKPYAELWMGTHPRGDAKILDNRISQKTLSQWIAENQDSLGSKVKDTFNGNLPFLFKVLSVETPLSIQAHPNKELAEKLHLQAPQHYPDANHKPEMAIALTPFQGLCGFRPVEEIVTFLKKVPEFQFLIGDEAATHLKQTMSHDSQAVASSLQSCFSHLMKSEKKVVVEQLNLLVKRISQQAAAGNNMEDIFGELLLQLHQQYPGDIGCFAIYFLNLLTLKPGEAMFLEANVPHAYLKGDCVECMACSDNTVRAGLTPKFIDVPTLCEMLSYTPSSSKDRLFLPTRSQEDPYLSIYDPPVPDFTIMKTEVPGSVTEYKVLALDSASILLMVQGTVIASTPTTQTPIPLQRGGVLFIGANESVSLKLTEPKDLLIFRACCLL

[5] = biological target: Peroxisome proliferator-activated receptor gamma/Nuclear receptor coactivator 2 (Homo sapiens, UniProt P37231); type: functional;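 note: agonist potency for raising coactivator recruitment to the receptor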
Chain of Peroxisome proliferator-activated receptor gamma/Nuclear receptor coactivator 2 (P37231 whole entry): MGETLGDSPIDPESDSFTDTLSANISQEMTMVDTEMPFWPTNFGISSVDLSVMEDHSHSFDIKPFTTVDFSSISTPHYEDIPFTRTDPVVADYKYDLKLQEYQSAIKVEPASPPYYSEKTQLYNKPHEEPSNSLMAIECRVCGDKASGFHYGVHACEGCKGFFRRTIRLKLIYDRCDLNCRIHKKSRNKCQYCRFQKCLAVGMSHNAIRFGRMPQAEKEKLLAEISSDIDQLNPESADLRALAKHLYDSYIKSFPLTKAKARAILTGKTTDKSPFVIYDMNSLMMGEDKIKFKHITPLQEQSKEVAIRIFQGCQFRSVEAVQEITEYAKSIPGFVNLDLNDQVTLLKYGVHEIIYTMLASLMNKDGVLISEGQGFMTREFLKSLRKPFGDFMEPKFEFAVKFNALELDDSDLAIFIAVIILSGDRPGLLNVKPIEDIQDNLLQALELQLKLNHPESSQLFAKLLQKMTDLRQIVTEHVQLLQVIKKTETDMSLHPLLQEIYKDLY
Chain of Peroxisome proliferator-activated receptor gamma/Nuclear receptor coactivator 2 (Q15596 whole entry, further chain): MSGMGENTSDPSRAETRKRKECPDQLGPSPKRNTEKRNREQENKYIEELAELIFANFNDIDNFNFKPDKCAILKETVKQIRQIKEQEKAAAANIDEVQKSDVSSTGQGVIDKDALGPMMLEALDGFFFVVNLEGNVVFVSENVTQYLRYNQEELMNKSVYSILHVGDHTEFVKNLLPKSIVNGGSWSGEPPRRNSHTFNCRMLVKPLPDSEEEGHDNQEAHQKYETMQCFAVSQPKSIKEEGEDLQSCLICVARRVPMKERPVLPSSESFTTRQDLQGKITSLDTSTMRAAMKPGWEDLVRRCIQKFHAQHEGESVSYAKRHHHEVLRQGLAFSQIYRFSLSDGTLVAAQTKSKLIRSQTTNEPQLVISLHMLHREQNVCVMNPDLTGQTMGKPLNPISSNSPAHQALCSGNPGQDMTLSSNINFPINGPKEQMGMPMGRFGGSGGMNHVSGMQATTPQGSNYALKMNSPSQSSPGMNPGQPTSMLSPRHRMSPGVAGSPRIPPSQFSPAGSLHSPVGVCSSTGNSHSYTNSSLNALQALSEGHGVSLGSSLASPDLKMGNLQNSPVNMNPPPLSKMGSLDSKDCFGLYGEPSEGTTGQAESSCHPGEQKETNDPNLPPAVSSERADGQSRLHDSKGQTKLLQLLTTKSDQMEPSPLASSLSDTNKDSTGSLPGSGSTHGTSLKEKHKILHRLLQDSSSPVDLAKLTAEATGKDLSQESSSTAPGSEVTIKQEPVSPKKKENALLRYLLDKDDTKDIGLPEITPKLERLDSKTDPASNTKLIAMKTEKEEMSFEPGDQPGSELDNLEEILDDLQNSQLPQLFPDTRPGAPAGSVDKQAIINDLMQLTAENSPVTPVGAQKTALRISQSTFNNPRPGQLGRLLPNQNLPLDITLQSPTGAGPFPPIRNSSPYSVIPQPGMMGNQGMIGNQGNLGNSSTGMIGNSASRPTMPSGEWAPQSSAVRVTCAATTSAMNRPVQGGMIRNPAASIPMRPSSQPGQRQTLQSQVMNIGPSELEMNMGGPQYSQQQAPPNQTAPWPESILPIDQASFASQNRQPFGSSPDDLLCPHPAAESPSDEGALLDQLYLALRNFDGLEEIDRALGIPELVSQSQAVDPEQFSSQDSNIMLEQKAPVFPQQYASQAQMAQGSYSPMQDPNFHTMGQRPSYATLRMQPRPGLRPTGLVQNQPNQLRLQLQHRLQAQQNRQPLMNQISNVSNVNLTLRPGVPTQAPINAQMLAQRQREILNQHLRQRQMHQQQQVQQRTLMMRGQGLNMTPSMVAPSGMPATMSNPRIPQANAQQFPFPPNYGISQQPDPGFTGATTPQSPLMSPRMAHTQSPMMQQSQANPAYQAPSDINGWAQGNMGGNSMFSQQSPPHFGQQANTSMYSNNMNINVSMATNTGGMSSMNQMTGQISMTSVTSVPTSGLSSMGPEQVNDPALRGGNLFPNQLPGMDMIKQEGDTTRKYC

[6] = biological target: Induced myeloid leukemia cell differentiation protein Mcl-1 (Homo sapiens, UniProt Q07820); type: functional
Chain of Induced myeloid leukemia cell differentiation protein Mcl-1 (Q07820 whole entry): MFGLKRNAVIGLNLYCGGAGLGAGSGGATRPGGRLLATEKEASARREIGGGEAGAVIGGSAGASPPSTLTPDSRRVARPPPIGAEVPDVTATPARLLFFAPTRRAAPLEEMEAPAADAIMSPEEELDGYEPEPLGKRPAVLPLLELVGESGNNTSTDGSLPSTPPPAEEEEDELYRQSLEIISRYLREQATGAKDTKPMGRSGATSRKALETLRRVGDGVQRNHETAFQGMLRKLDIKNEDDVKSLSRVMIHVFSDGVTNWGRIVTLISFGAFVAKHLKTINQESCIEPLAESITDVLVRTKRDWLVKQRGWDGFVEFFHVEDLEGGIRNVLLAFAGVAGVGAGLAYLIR

[7] = biological target: Peroxisome proliferator-activated receptor gamma/Nuclear receptor coactivator 1 (Homo sapiens, UniProt P37231); type: functional;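 note: agonist potency as compounds enhance coactivator SRC-1 recruitment to PPARgamma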
Chain of Peroxisome proliferator-activated receptor gamma/Nuclear receptor coactivator 1 (P37231 whole entry): as the sequence (P37231 whole entry) above
Chain of Peroxisome proliferator-activated receptor gamma/Nuclear receptor coactivator 1 (Q15788 whole entry, further chain): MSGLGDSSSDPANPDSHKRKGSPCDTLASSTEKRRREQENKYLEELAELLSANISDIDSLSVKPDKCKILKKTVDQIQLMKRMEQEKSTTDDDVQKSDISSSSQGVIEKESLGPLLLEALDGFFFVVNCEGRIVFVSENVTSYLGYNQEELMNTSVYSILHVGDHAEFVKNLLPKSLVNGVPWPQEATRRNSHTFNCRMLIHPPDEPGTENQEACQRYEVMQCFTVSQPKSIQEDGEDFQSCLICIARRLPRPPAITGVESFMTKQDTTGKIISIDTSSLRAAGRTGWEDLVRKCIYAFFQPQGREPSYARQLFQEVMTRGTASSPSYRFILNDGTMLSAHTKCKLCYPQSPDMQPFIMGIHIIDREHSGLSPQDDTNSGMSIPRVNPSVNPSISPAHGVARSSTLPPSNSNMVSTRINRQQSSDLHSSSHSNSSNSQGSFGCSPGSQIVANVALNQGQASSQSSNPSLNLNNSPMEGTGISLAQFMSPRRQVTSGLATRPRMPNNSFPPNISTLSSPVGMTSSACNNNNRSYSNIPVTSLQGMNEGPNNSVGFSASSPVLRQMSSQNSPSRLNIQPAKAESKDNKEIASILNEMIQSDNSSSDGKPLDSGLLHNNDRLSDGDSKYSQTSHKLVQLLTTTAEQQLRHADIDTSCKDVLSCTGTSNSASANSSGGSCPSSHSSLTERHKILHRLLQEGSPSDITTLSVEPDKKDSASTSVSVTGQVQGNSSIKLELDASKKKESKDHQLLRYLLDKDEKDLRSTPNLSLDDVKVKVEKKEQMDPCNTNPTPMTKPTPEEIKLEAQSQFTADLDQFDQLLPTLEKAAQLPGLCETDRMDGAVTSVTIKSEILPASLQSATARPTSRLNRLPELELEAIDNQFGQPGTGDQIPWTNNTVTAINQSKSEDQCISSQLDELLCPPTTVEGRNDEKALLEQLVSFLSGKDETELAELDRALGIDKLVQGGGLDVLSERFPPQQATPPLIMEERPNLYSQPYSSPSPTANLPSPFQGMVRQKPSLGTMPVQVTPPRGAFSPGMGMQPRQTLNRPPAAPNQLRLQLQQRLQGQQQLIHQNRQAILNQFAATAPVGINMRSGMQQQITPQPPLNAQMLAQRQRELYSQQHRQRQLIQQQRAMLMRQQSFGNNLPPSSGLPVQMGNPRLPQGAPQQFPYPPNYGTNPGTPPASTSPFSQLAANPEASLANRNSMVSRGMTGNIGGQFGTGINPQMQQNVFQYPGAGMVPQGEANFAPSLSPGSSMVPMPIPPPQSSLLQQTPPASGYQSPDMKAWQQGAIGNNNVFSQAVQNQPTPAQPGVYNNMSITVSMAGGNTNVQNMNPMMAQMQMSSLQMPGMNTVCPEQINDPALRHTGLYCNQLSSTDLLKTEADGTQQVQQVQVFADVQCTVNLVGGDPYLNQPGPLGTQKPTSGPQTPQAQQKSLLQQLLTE

[8] = biological target: Peroxisome proliferator-activated receptor gamma/Nuclear receptor coactivator 3 (Homo sapiens, UniProt P37231); type: functional;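 note: agonist potency for raising coactivator recruitment to the receptor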
NADPH oxidase 1 = biological target: T2, NADPH oxidase 1 (Homo sapiens, UniProt Q9Y5S8); experiment: Luminescence-based cell-based dose response assay to identify inhibitors of NADPH oxidase 1 (NOX1).; type: functional
T2 sequence (Q9Y5S8 whole entry): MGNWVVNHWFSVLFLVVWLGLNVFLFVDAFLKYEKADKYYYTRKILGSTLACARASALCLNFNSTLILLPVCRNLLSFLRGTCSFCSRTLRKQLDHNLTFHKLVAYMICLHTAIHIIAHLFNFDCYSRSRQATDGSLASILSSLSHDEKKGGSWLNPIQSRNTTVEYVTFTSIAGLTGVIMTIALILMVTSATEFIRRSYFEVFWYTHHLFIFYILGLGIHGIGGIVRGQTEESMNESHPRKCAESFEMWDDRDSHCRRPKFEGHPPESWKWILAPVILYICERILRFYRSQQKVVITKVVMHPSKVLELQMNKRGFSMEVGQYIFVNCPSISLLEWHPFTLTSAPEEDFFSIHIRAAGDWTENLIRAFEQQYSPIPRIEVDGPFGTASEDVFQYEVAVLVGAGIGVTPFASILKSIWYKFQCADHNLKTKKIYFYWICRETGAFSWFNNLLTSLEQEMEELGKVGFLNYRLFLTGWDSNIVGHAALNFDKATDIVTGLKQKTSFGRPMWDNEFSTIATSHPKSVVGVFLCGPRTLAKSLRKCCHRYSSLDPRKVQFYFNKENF

[9] = biological target: Epstein-Barr nuclear antigen 1 (Epstein-Barr virus (strain B95-8) (HHV-4) (Human herpesvirus 4), UniProt P03211); experiment: inhibition of EBV nuclear antigen 1 DNA binding – biochemical, fluorescence polarization, 1536-well, dose response (AID 2381); set-up: species or system human gammaherpesvirus 4;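 note: fluorescence polarization of a Cy5 DNA probe bound by EBNA-1 protein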
[10] = biological target: Lytic switch protein BZLF1 (Epstein-Barr virus (strain B95-8) (HHV-4) (Human herpesvirus 4), UniProt P03206); experiment: inhibition of BZLF1 ZTA DNA binding – biochemical, fluorescence polarization, Epstein-Barr virus, 1536-well, counter-screen for EBNA-1 inhibitor project, dose response (AID 2377); set-up: species or system human gammaherpesvirus 4;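 note: fluorescence polarization of Cy5-labelled ZRE DNA probe bound by purified Zta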
Chain of Lytic switch protein BZLF1 (P03206 whole entry, the tested form may be a part): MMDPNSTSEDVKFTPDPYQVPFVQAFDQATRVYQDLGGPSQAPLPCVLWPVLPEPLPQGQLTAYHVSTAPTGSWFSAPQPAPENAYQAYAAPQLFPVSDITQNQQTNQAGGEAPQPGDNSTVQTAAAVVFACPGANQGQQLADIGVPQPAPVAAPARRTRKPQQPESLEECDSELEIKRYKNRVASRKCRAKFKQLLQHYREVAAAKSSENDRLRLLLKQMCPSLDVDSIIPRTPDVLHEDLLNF

Estrogen receptor = Estrogen receptor (Homo sapiens, UniProt P03372); experiment: ERα coactivator recruitment enhancers – biochemical, TR-FRET, ERα LBD, dose response (AID 737)
Protein RecA = biological target: T3, Protein RecA (Mycobacterium tuberculosis, UniProt P9WHJ3); experiment: Fluorescence Cell-Free Homogeneous Dose Retest to Identify Inhibitors of RecA-Intein Splicing Activity. [Related pubchem assays (depositor defined):AID2097, AID2223, AID489010, AID492950]; type: functional
T3 sequence (P9WHJ3 whole entry): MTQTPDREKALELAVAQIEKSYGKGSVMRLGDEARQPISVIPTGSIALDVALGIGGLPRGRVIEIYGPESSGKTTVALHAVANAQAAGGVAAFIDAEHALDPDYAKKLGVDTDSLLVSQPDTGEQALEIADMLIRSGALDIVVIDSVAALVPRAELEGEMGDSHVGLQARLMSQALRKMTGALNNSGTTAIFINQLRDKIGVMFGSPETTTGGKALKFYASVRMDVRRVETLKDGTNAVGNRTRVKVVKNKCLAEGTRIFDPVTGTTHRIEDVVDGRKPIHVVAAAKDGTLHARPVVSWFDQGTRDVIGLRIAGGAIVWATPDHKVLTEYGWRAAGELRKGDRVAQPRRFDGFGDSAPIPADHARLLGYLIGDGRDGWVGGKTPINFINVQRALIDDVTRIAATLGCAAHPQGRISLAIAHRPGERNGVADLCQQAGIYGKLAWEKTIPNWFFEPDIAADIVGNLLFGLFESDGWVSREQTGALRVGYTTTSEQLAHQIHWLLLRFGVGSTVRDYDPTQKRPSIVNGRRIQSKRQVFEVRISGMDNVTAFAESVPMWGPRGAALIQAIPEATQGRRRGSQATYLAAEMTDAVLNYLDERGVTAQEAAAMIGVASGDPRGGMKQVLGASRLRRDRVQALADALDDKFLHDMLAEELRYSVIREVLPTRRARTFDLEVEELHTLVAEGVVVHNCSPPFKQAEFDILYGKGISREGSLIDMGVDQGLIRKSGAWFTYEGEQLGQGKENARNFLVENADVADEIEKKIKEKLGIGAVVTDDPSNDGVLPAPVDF

[11] = biological target: T4, RNA-binding protein pos-1 (Caenorhabditis elegans, UniProt G5EF15); experiment: disruptors of C. elegans POS-1 RNA interaction – biochemical, fluorescence polarization, dose response (AID 1964);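 note: purified POS-1 fused to maltose binding protein made in E. coli; potency of compounds blocking POS-1 binding to fluorescent RNA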
T4 sequence (G5EF15 whole entry): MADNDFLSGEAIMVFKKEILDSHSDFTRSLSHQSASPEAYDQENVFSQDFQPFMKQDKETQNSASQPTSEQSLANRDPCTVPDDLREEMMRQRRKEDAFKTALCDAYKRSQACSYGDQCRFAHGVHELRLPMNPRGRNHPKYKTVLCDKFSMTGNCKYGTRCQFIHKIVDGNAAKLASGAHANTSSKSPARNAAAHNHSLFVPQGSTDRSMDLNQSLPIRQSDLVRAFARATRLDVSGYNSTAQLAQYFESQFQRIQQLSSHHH

[12] = biological target: T5, Replicative DNA helicase DnaB (Mycobacterium tuberculosis, UniProt P9WMR3); experiment: DnaB intein splicing inhibitors, dose response, biochemical, cell-free fluorescence (AID 449749); type: functional
T5 sequence (P9WMR3 whole entry): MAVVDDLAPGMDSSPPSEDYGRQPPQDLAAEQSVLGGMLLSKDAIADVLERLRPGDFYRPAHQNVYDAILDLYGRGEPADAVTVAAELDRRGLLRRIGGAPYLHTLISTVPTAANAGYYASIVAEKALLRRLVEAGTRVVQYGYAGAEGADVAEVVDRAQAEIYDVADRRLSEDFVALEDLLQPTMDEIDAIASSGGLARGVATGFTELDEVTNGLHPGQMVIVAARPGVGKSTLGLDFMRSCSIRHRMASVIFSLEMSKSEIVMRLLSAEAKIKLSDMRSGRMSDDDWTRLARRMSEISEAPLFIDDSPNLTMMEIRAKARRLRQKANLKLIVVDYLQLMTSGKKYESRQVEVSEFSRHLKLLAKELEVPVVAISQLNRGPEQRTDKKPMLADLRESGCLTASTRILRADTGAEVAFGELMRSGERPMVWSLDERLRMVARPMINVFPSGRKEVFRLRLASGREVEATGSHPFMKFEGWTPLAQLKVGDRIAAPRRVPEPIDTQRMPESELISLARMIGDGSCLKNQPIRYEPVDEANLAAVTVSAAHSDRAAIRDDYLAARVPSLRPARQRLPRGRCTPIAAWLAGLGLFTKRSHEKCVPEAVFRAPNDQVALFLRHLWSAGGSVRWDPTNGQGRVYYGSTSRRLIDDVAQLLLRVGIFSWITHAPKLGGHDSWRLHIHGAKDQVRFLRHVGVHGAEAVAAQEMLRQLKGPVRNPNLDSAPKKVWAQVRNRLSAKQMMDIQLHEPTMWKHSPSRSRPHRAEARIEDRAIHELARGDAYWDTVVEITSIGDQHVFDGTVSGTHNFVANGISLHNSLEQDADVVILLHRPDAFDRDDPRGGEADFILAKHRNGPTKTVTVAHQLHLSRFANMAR

[13] = antiviral protection against BTV-induced cell death – arbovirus, BSR cells, confirmation (AID 1250); type: functional;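 note: protection from viral cytopathic effect measured as cell viability by ATP luminescence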
[14] = biological target: T6, Zinc finger protein mex-5 (Caenorhabditis elegans, UniProt Q9XUB2); experiment: potency of MEX-5 RNA-binding blockers – biochemical, C. elegans, fluorescence polarization, dose response (AID 1960)
T6 sequence (Q9XUB2 whole entry): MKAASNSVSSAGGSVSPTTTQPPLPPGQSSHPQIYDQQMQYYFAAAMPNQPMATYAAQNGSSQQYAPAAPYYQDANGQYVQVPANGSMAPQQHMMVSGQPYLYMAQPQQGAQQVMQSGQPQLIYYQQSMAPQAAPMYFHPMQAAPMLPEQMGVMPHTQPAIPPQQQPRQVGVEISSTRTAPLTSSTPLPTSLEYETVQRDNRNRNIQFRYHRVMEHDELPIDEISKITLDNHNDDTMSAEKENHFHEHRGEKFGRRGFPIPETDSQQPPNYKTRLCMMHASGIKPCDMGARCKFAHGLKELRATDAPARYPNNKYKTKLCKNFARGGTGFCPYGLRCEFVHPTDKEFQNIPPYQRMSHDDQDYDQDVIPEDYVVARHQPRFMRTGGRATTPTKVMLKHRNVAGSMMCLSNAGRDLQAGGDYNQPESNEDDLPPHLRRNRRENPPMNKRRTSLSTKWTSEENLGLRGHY

[15] = biological target: T7, Neuropeptide Y receptor type 2 (Homo sapiens, UniProt P49146); type: functional, cell-based;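 note: HEK293 cells expressing the receptor and a CNG channel; stimulus was NPY near EC95 followed by isoproterenol to raise cAMP; antagonist potency measured as restoring cAMP signal that NPY suppresses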
T7 sequence (P49146 whole entry): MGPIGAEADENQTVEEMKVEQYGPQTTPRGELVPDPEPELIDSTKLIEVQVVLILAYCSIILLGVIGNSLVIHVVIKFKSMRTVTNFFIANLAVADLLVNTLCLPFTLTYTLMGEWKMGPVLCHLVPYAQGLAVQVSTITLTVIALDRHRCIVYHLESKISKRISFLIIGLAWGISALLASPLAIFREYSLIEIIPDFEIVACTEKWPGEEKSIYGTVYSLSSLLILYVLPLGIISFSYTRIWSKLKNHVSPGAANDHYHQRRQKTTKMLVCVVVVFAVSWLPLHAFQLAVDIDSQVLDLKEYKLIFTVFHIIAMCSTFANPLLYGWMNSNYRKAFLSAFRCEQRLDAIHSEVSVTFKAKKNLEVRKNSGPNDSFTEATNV

[16] = biological target: T8, Neuropeptide Y receptor type 1 (Homo sapiens, UniProt P25929); type: functional;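 note: HEK293 cells with a CNG channel challenged with NPY then isoproterenol; potency as antagonist that reverses NPY suppression of cAMP signal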
T8 sequence (P25929 whole entry): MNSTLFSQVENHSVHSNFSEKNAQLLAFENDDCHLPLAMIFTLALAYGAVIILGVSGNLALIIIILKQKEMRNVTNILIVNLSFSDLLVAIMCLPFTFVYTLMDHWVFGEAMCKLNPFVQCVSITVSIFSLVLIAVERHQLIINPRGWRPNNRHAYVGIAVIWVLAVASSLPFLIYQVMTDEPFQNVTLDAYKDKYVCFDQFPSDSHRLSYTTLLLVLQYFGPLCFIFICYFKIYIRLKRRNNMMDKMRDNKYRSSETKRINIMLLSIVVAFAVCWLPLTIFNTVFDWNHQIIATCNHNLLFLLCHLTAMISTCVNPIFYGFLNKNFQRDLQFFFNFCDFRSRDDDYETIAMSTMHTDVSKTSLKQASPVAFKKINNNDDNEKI

SMILES: Cn1cc(-c2ccc(CN3C(=O)C(=O)c4ccccc43)cc2)cn1
- EC50 [1]: 2.71 µM (active)
- EC50 [2]: 2.42 µM (active)
- EC50 [3]: 2.71 µM (active)

SMILES: COc1ccc(N2CCC(CNC(=O)Nc3ccccc3)C2)cc1 (stereo unspecified)
- IC50 (Large T antigen): 10.6 µM (active)
- IC50 [4]: > 50 µM (not active)
- EC50 [5]: > 79.4 µM (not active)
- IC50 [6]: 2.58 µM (active)
- EC50 [7]: > 79.4 µM (not active)
- EC50 [8]: > 79.4 µM (not active)

SMILES: CCN(CC)c1ccc(NC(=O)Nc2ccc(C(C)=O)cc2)cc1
- IC50 (NADPH oxidase 1): 0.252 µM (active)
- IC50 [6]: 4.48 µM (not active)

SMILES: CC(=O)Nc1ccc(S(=O)(=O)N2CCN(Cc3nc(O)c4c(C)c(C)sc4n3)CC2)cc1
- IC50 [9]: > 148 µM (not active)
- IC50 [10]: > 111 µM (not active)

SMILES: Cc1ccc(CN(Cc2cc3cc(C)ccc3[nH]c2=O)C(=O)N2CCOCC2)cc1
- EC50 (Estrogen receptor): 12.6 µM (not active)

SMILES: O=C1NC(=O)N(Cc2ccc(F)cc2)C(=O)/C1=C/NNC(=O)c1ccccc1O
- EC50 (Protein RecA): 21.9 µM (active)
- EC50 [11]: 10.1 µM (active)
- AC50 [12]: 6.55 µM (active)
- IC50 [13]: > 100 µM (active)
- EC50 [14]: 9.33 µM (active)

SMILES: CCCCC(=O)N/N=C/c1ccc(N2CCOCC2)c([N+](=O)[O-])c1
- IC50 [15]: 16.3 µM (not active)
- IC50 [16]: 26.7 µM (not active)
